Laboratory results published in patent publication US8895511B2, “Use of sarcoplasmic CA2+-ATPase type 2 protein for diagnosing and treating learning or mental disorders” (priority 2009, dated 2014).

Tests used:
[1] = tested on: CA3-CA1 synapses in acute hippocampal slices; assay: Paired-pulse facilitation (PPF) of fEPSPs, field potential recordings in hippocampal slices; assay type: cell-based, mouse
[2] = tested on: CA3-CA1 synapses in acute hippocampal slices; assay: PTP and LTP of fEPSPs induced by 200-Hz tetanization in hippocampal slices; assay type: cell-based, mouse; conditions: CPA or thapsigargin (4 μm); for fEPSP5 (PTP, 5 minutes after tetanization) as % of that in vehicle-treated Df(16)1/+ slices / fEPSP360 (LTP, 6 hours post-tetanus) as % of that in vehicle-treated Df(16)1/+ slices: slices from mature Df(16)1/+ mice
[3] = WT mice, 200-Hz induction protocol

| Structure (SMILES) | PPF ([1]; Df(16)1/+ mice, 20-ms interval, CPA added to the bath solution) | PPF ([1]; Df(16)1/+ mice, 50-ms interval, CPA added to the bath solution) | PPF ([1]; WT mice, 20-ms interval, in the presence of CPA) | PPF ([1]; WT mice, 50-ms interval, in the presence of CPA) | fEPSP5 (PTP, 5 minutes after tetanization) as % of that in vehicle-treated Df(16)1/+ slices ([2]; 200-Hz tetanization) [%] | fEPSP360 (LTP, 6 hours post-tetanus) as % of that in vehicle-treated Df(16)1/+ slices ([2]; 200-Hz tetanization) [%] | effect on enhancement of PTP and LTP ([2]; Df(16)1/+ mice, 200-Hz tetanization) | WT fEPSP5 in the presence vs absence of inhibitor [2, 3] | WT fEPSP360 in the presence vs absence of inhibitor [2, 3] |
| --- | --- | --- | --- | --- | --- | --- | --- | --- | --- |
| CC(=O)C1=C(O)[C@@H]2[C@H]3c4c[nH]c5cccc(c45)C[C@H]3C(C)(C)N2C1=O [CPA, cyclopiazonic acid] | 1.78±0.13 | 1.76±0.09 | 1.64±0.11 | 1.61±0.05 | 45 | 60 |  |  |  |
| C/C=C(/C)C(=O)O[C@H]1C(C)=C2[C@H]([C@@H]1OC(=O)CCCCCCC)[C@@](C)(OC(C)=O)C[C@H](OC(=O)CCC)[C@@]1(O)[C@H]2OC(=O)[C@@]1(C)O [thapsigargin] |  |  |  |  | 69 | 57 | rescued the enhancement of PTP and LTP | no significant difference | no significant difference |
